Test results taken from patent US12679878B2, “CRF2 receptor agonists and their use in therapy” (SANOFI, priority 2020, dated 2026).
Like-named read-outs stand apart in the source and are kept apart here. Starred links: 1 amine or outer side, 2 acyl side, 3 side chain; linkers in the order of their positions; H or OH if unused. Non-standard residues stand in square brackets, D forms with d. Residues, ends and D or L forms follow the SMILES beside them. Groups on a side chain read outwards from the residue. *: point of attachment. C18 diacid = O=C(O)CCCCCCCCCCCCCCCCC(=O)*; γGlu = O=C(O)[C@H](CCC(=O)[*:2])N[*:1]; Palmitoyl = CCCCCCCCCCCCCCCC(=O)*; AEEA = NCCOCCOCC(=O)O; Aib = CC(C)(N)C(=O)O

Experiments:
Type in all cases: cell-based
[1] = tested on: rat CRF2R α receptor; assay: cAMP agonism at rat CRF2R α receptor in A7R5 rat aortic smooth muscle cells (Example 8); conditions: cAMP HTRF, A7R5 rat aortic smooth muscle cell line, 0% HSA
In short: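 Potency (EC50) is the concentration reaching half-maximal activation, with responses scaled so that 1000 nM urocortin 2 equals 100%. Intracellular cAMP was quantified by homogeneous time-resolved fluorescence at 665/620 nm, 1 h after lysis-buffer reagents. Compound stimulation lasted 30 min at room temperature on 2000 IBMX-treated (2 mM) cells per well in HEPES-buffered HBSS.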

[2] = biological target: T1, human CRF2α receptor (Homo sapiens, UniProt Q13324); assay: cAMP agonism at human CRF2 α receptor in TeloHEAC cells (Example 7); conditions: cAMP HTRF, TeloHEAC cells stably expressing human CRF2 α
T1 construct: expressed in transfected cells; host or cells: TeloHEAC
T1 sequence (Q13324 1-411): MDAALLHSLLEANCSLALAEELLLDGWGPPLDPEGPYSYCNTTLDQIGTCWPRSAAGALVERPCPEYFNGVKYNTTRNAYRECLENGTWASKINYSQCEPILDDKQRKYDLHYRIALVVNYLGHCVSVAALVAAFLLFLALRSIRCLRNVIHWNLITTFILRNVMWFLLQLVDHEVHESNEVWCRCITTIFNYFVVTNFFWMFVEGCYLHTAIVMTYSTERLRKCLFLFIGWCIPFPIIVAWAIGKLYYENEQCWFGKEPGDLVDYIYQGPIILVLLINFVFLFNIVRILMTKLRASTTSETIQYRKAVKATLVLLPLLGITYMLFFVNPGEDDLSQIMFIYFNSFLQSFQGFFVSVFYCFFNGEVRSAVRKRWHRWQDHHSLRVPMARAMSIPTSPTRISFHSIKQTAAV
In short: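 Percent activation was referenced to 1000 nM UCN2 (100%), and EC50 values taken as concentrations giving half of maximal response. The read-out was a homogeneous time-resolved fluorescence cAMP kit, fluorescence ratio 665/620 nm. Thawed cells (2000/well) saw compound for 30 min at RT in buffer with 2 mM IBMX and 0%/0.1% HSA.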

[3] = biological target: T2, CRF1R receptor (Homo sapiens, UniProt P34998); assay: cAMP activity at anti-target CRF1R, CRF1R-overexpression CHO cell line (Example 9); conditions: for EC50: 0% HSA
T2 construct: host or cells: CHO-K1 clone 2
T2 sequence (P34998 24-415): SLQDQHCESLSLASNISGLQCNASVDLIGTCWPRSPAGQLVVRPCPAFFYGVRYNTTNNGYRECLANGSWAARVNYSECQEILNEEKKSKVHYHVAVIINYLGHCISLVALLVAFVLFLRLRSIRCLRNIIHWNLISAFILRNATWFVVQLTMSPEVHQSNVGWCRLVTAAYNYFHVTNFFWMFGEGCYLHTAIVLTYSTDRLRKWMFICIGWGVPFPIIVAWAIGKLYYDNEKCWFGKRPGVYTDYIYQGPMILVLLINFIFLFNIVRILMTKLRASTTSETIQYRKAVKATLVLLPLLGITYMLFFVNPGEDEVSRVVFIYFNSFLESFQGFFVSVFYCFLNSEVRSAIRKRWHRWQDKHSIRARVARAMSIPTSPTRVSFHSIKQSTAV
In short: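 Using thawed CRF1R-overexpressing CHO cells at 2000 per well, compound is applied for 30 min at RT in HBSS/HEPES buffer with IBMX. Cellular cAMP content is determined via HTRF, and percent activity is calculated against 1000 nM UCN2 defined as 100%.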

[4] = 0% HSA, read-out: EC50 [nM], 0% HSA
[5] = 0.1% HSA, read-out: EC50 [nM], 0.1% HSA
[6] = CRF1R-overexpression CHO cell line
[7] = CRF1R-overexpression CHO cell line, read-out: Emax (%)

| Compound | EC50 [1] | EC50 [2, 4] | EC50 [2, 5] | Emax ([3]; CHO) | EC50 [3, 6] | Emax [3, 7] |
| --- | --- | --- | --- | --- | --- | --- |
| CC[C@H](C)[C@H](NC(=O)[C@H](CCC(N)=O)NC(=O)[C@H](CCC(=O)O)NC(=O)[C@H](CC(C)C)NC(=O)[C@H](CC(C)C)NC(=O)[C@H](CCC(N)=O)NC(=O)[C@H](CCCCN)NC(=O)[C@H](CC(N)=O)NC(=O)[C@H](CCCCN)NC(=O)[C@H](CCC(=O)O)NC(=O)[C@H](C)NC(=O)[C@H](CCC(N)=O)NC(=O)[C@H](CCC(N)=O)NC(=O)[C@H](CCCNC(=N)N)NC(=O)[C@H](CCC(=O)O)NC(=O)[C@H](CCCCN)NC(=O)[C@H](CCCCN)NC(=O)[C@H](CCC(N)=O)NC(=O)[C@H](CCCCN)NC(=O)[C@H](CCC(N)=O)NC(=O)[C@H](CCC(N)=O)NC(=O)[C@H](CCCCN)NC(=O)[C@H](Cc1ccccc1)NC(=O)[C@H](CC(C)C)NC(=O)[C@@H](NC(=O)[C@H](CCC(N)=O)NC(=O)[C@H](CCCCNC(=O)COCCOCCNC(=O)COCCOCCNC(=O)CC[C@H](NC(=O)CCCCCCCCCCCCCCCCC(=O)O)C(=O)O)NC(=O)[C@@H](NC(=O)[C@H](CCCCN)NC(=O)[C@@H](NC(=O)[C@@H]1CCCN1C(=O)[C@@H](NC(=O)[C@H](CC(=O)O)NC(=O)[C@H](CC(C)C)NC(=O)[C@H](CO)NC(=O)[C@H](CC(C)C)NC(=O)[C@@H](NC(=O)[C@@H](N)Cc1ccccc1)[C@@H](C)O)C(C)C)[C@@H](C)O)[C@@H](C)CC)[C@@H](C)CC)C(N)=O [compound 13] (H-FTLSLDVPTKIK([AEEA-AEEA-γGlu-C18 diacid])QILFKQQKQKKERQQAEKNKQLLEQI-NH2; N-terminus assumed) | 2.5 nM | 0.98 nM | 64.1 nM | 4.3% | – | – |
| CCCCCCCCCCCCCCCC(=O)N[C@@H](CCC(=O)NCCCC[C@H](NC(=O)[C@@H](NC(=O)[C@H](CCCCN)NC(=O)[C@@H](NC(=O)[C@@H]1CCCN1C(=O)[C@@H](NC(=O)[C@H](CC(=O)O)NC(=O)[C@H](CC(C)C)NC(=O)[C@H](CO)NC(=O)[C@H](CC(C)C)NC(=O)[C@@H](NC(=O)[C@@H](N)Cc1ccccc1)[C@@H](C)O)C(C)C)[C@@H](C)O)[C@@H](C)CC)C(=O)N[C@@H](CCC(N)=O)C(=O)N[C@@H](CCCCN)C(=O)N[C@@H](CC(C)C)C(=O)N[C@@H](Cc1ccccc1)C(=O)N[C@@H](CCCCN)C(=O)N[C@@H](CCC(N)=O)C(=O)N[C@@H](C)C(=O)N[C@@H](CCCCN)C(=O)N[C@@H](CCC(N)=O)C(=O)N[C@@H](CCCCN)C(=O)N[C@@H](CCCCN)C(=O)N[C@@H](CCC(N)=O)C(=O)N[C@@H](CCCNC(=N)N)C(=O)N[C@@H](CCC(N)=O)C(=O)N[C@@H](CCCCN)C(=O)N[C@@H](C)C(=O)N[C@@H](CCCCN)C(=O)N[C@H](C(=O)N[C@@H](CC(N)=O)C(=O)N[C@@H](C)C(=O)N[C@@H](CCC(N)=O)C(=O)N[C@H](C(=O)N[C@@H](CC(C)C)C(=O)N[C@@H](C)C(=O)N[C@@H](CCCNC(=N)N)C(=O)N[C@H](C(N)=O)C(C)C)[C@@H](C)CC)[C@@H](C)O)C(=O)O [compound 15] (H-FTLSLDVPTKIK([γGlu-Palmitoyl])QKLFKQAKQKKQRQKAKTNAQILARV-NH2; N-terminus assumed) | 1.38 nM | 0.88 nM | – | – | > 1000 nM | 7.75% |
| CC[C@H](C)[C@H](N)C(=O)N[C@H](C(=O)N[C@@H](CC(C)C)C(=O)N[C@@H](CO)C(=O)N[C@@H](CC(C)C)C(=O)N[C@@H](CC(=O)O)C(=O)N[C@H](C(=O)N1CCC[C@H]1C(=O)N[C@H](C(=O)N[C@@H](CCCCN)C(=O)N[C@@H](CC(C)C)C(=O)N[C@@H](CCCCNC(=O)COCCOCCNC(=O)COCCOCCNC(=O)CC[C@H](NC(=O)CCCCCCCCCCCCCCCCC(=O)O)C(=O)O)C(=O)N[C@@H](CCC(N)=O)C(=O)N[C@H](C(=O)N[C@@H](CC(C)C)C(=O)N[C@@H](CC(C)C)C(=O)N[C@@H](CCC(=O)O)C(=O)N[C@@H](CCC(N)=O)C(=O)N[C@@H](C)C(=O)N[C@@H](CCCCN)C(=O)N[C@@H](CCC(N)=O)C(=O)N[C@@H](CCCCN)C(=O)NC(C)(C)C(=O)N[C@@H](CC(C)C)C(=O)N[C@@H](CCCNC(=N)N)C(=O)N[C@@H](C)C(=O)N[C@@H](CCC(N)=O)C(=O)N[C@@H](C)C(=O)N[C@@H](CCC(=O)O)C(=O)N[C@H](C(=O)N[C@@H](CC(N)=O)C(=O)N[C@H](C(=O)N[C@@H](CCCNC(=N)N)C(=O)N[C@H](C(=O)N[C@@H](CC(C)C)C(=O)N[C@@H](CCC(=O)O)C(=O)N[C@@H](CCCNC(=N)N)C(=O)N[C@H](C(N)=O)C(C)C)[C@@H](C)CC)C(C)C)[C@@H](C)O)[C@@H](C)CC)[C@@H](C)CC)C(C)C)C(C)C [compound 46] (H-IVLSLDVPIKLK([AEEA-AEEA-γGlu-C18 diacid])QILLEQAKQK[Aib]LRAQAETNVRILERV-NH2; N-terminus assumed) | 8.97 nM | 0.52 nM | – | – | > 1000 nM | 5.88% |
| CC[C@H](C)[C@H](NC(=O)[C@H](CCC(N)=O)NC(=O)[C@H](CCCCNC(=O)COCCOCCNC(=O)COCCOCCNC(=O)CC[C@H](NC(=O)CCCCCCCCCCCCCCCCC(=O)O)C(=O)O)NC(=O)[C@@H](NC(=O)[C@H](CCCCN)NC(=O)[C@@H](NC(=O)[C@@H]1CCCN1C(=O)[C@@H](NC(=O)[C@H](CC(=O)O)NC(=O)[C@H](CC(C)C)NC(=O)[C@H](CO)NC(=O)[C@H](CC(C)C)NC(=O)[C@@H](NC(=O)[C@@H](N)Cc1ccccc1)[C@@H](C)O)C(C)C)[C@@H](C)O)[C@@H](C)CC)C(=O)N[C@@H](CC(C)C)C(=O)N[C@@H](CC(C)C)C(=O)N[C@@H](CCCCN)C(=O)N[C@@H](CCC(N)=O)C(=O)N[C@@H](CCC(N)=O)C(=O)N[C@@H](CCCCN)C(=O)N[C@@H](CCC(N)=O)C(=O)N[C@@H](CCCCN)C(=O)N[C@@H](CCCCN)C(=O)N[C@@H](CCC(=O)O)C(=O)N[C@@H](CCCNC(=N)N)C(=O)N[C@@H](CCC(N)=O)C(=O)N[C@@H](CCC(N)=O)C(=O)N[C@@H](C)C(=O)N[C@@H](CCC(=O)O)C(=O)N[C@@H](CCCCN)C(=O)N[C@@H](CC(N)=O)C(=O)N[C@@H](CCCCN)C(=O)N[C@@H](CCC(N)=O)C(=O)N[C@@H](CC(C)C)C(=O)N[C@@H](CC(C)C)C(=O)N[C@@H](CCC(=O)O)C(=O)N[C@@H](CCCNC(=N)N)C(=O)N[C@H](C(N)=O)C(C)C [compound 52] (H-FTLSLDVPTKIK([AEEA-AEEA-γGlu-C18 diacid])QILLKQQKQKKERQQAEKNKQLLERV-NH2; N-terminus assumed) | 0.76 nM | 0.7 nM | 45.8 nM | – | > 1000 nM | 5.3% |
| CC[C@H](C)[C@H](NC(=O)[C@H](CCC(N)=O)NC(=O)[C@H](CCCCNC(=O)COCCOCCNC(=O)COCCOCCNC(=O)CC[C@H](NC(=O)CCCCCCCCCCCCCCCCC(=O)O)C(=O)O)NC(=O)[C@@H](NC(=O)[C@H](CCCCN)NC(=O)[C@@H](NC(=O)[C@@H]1CCCN1C(=O)[C@@H](NC(=O)[C@H](CC(=O)O)NC(=O)[C@H](CC(C)C)NC(=O)[C@H](CO)NC(=O)[C@H](CC(C)C)NC(=O)[C@@H](NC(=O)[C@@H](N)Cc1ccccc1)[C@@H](C)O)C(C)C)[C@@H](C)O)[C@@H](C)CC)C(=O)N[C@@H](CC(C)C)C(=O)N[C@@H](CC(C)C)C(=O)N[C@@H](CCCCN)C(=O)N[C@@H](CCC(N)=O)C(=O)N[C@@H](CCC(N)=O)C(=O)N[C@@H](CCCCN)C(=O)N[C@@H](CCC(N)=O)C(=O)N[C@@H](CCCCN)C(=O)N[C@@H](CCCCN)C(=O)N[C@@H](CCC(=O)O)C(=O)N[C@@H](CCCNC(=N)N)C(=O)N[C@@H](CCC(N)=O)C(=O)N[C@@H](CCC(N)=O)C(=O)N[C@@H](C)C(=O)N[C@@H](CCC(=O)O)C(=O)N[C@H](C(=O)N[C@@H](CC(N)=O)C(=O)N[C@@H](CCCCN)C(=O)N[C@@H](CCC(N)=O)C(=O)N[C@@H](CC(C)C)C(=O)N[C@@H](CC(C)C)C(=O)N[C@@H](CCC(=O)O)C(=O)N[C@@H](CCCNC(=N)N)C(=O)N[C@H](C(N)=O)C(C)C)[C@@H](C)O [compound 53] (H-FTLSLDVPTKIK([AEEA-AEEA-γGlu-C18 diacid])QILLKQQKQKKERQQAETNKQLLERV-NH2) | 1.32 nM | 1.01 nM | 55.1 nM | – | > 1000 nM | 4.14% |
